Molecular target: T1, EP1 receptors (Homo sapiens, UniProt P34995)
T1 sequence (P34995 1-402): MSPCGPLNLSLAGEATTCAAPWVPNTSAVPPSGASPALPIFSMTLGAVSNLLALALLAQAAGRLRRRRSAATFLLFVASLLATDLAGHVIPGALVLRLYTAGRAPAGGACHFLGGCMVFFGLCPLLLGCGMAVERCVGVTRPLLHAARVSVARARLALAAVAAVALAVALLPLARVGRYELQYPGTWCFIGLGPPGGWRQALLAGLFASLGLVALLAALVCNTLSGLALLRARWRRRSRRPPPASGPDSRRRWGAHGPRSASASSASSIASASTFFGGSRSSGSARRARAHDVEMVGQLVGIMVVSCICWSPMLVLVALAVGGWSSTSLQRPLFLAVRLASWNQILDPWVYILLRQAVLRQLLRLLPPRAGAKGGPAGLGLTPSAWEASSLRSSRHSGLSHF
Experiment: Binding assay for the human prostanoid EP1 receptor (competition with [3H]-PGE2)
Design: expressed in transfected cells; host or cells: CHO-K1 cells, membrane fraction
Conditions: [3H]-PGE2 competition; averages of a number of experiments; read-out: pIC50 value, binding assay for the human prostanoid EP1 receptor (converted)
Protocol: Competition assay using [^3H]-PGE2.
Compound potencies are determined using a radioligand binding assay. In this assay compound potencies are determined from their ability to compete with tritiated prostaglandin E2 ([^3H]-PGE2) for binding to the human EP1 receptor.
This assay utilises Chinese hamster ovary-K1 (CHO-K1) cells into which a stable vector containing the EP1 cDNA has previously been transfected. Cells are cultured in suitable flasks containing culture medium such as DMEM:F-12 supplemented with 10% v/v foetal calf serum, 2 mM L-glutamine, 0.25 mg/ml geneticin, 10 μg/ml puromycin and 10 μM indomethacin.
Cells are detached from the culture flasks by incubation in calcium and magnesium free phosphate buffered saline containing 1 mM disodium ethylenediaminetetraacetic acid (Na2EDTA) and 10 μM indomethacin for 5 min. The cells are isolated by centrifugation at 250×g for 5mins and suspended in an ice cold buffer such as 50 mM Tris, 1 mM Na2EDTA, 140 mM NaCl, 10 μM indomethacin (pH 7.4). The cells are homogenised using a Polytron tissue disrupter (2×10 s burst at full setting), centrifuged at 48,000×g for 20mins and the pellet containing the membrane fraction is washed (optional) three times by suspension and centrifugation at 48,000×g for 20mins. The final membrane pellet is suspended in an assay buffer such as 10 mM 2-[N-morpholino]ethanesulphonic acid, 1 mM Na2EDTA, 10 mM MgCl2 (pH 6). Aliquots are frozen at […] until required.
For the binding assay the cell membranes, competing compounds and [^3H]-PGE2 (3 nM final assay concentration) are incubated in a final volume of 100 μl for 30 min at 30° C. All reagents are prepared in assay buffer. Reactions are terminated by rapid vacuum filtration over GF/B filters using a Brandell cell harvester. The filters are washed with ice cold assay buffer, dried and the radioactivity retained on the filters is measured by liquid scintillation counting in Packard TopCount scintillation counter.
The data are analysed using non linear curve fitting techniques to determine the concentration of compound producing 50% inhibition of specific binding (IC50).

Row | SMILES | IC50
1 | O=C(O)c1csc(Cc2cc(C(F)(F)F)ccc2OCc2ccc(F)cc2Cl)n1 [Example 33, Sodium 2-{[2-{[(2-chloro-4-fluorophenyl)methyl]oxy}-5-(trifluoromethyl)phenyl]methyl}-1,3-thiazole-4-carboxylate] | ≤ 31.6 nM
2 | O=C(O)c1csc(Cc2cc(C(F)(F)F)ccc2OCc2cccc(F)c2F)n1 [Example 34, Sodium 2-{[2-{[(2,3-difluorophenyl)methyl]oxy}-5-(trifluoromethyl)phenyl]methyl}-1,3-thiazole-4-carboxylate] | ≤ 31.6 nM
3 | O=C(O)c1csc(Cc2cc(C(F)(F)F)ccc2OCc2ccc(F)c(F)c2F)n1 [Example 35, Sodium 2-{[5-(trifluoromethyl)-2-{[(2,3,4-trifluorophenyl)methyl]oxy}phenyl)methyl]-1,3-thiazole-4-carboxylate] | ≤ 1000 nM
4 | O=C(O)c1csc(Cc2cc(C(F)(F)F)ccc2OCc2cc(F)c(F)cc2F)n1 [Example 36, Sodium 2-[(5-(trifluoromethyl)-2-{[(2,4,5-trifluorphenyl)methyl]oxy}phenyl)methyl]-1,3-thiazole-4-carboxylate] | ≤ 31.6 nM
5 | CCCOc1ccc(C(F)(F)F)cc1Cc1nc(C(=O)O)cs1 [Example 37, Sodium 2-{[2-(propyloxy)-5-(trifluoromethyl)phenyl]methyl}-1,3-thiazole-4-carboxylate] | ≤ 31.6 nM
6 | CCCCOc1ccc(C(F)(F)F)cc1Cc1nc(C(=O)O)cs1 [Example 38, Sodium 2-{[2-(butyloxy)-5-(trifluoromethyl)phenyl]methyl}-1,3-thiazole-4-carboxylate] | ≤ 1000 nM
7 | O=C(O)c1csc(Cc2cc(C(F)(F)F)ccc2OCC2CC2)n1 [Example 39, Sodium 2-{[2-[(cyclopropylmethyl)oxy]-5-(trifluoromethyl)phenyl]methyl}-1,3-thiazole-4-carboxylate] | ≤ 31.6 nM
8 | CCCCCOc1ccc(C(F)(F)F)cc1Cc1nc(C(=O)O)cs1 [Example 40, Sodium 2-{[2-(pentyloxy)-5-(trifluoromethyl)phenyl]methyl}-1,3-thiazole-4-carboxylate] | ≤ 1000 nM
9 | CC(C)CCOc1ccc(C(F)(F)F)cc1Cc1nc(C(=O)O)cs1 [Example 41, Sodium 2-{[2-[(3-methylbutyl)oxy]-5-(trifluoromethyl)phenyl]methyl}-1,3-thiazole-4-carboxylate] | ≤ 31.6 nM
10 | O=C(O)c1csc(Cc2cc(C(F)(F)F)ccc2OCC2CCCCC2)n1 [Example 42, Sodium 2-{[2-[(cyclohexylmethyl)oxy]-5-(trifluoromethyl)phenyl]methyl}-1,3-thiazole-4-carboxylate] | ≤ 1000 nM
11 | O=C(O)c1csc(Cc2cc(C(F)(F)F)ccc2OCC2CCC2)n1 [Example 43, Sodium 2-{[2-[(cyclobutylmethyl)oxy]-5-(trifluoromethyl)phenyl]methyl}-1,3-thiazole-4-carboxylate] | ≤ 31.6 nM
12 | CC(C)COc1ccc(C(F)(F)F)cc1Cc1nc(C(=O)O)cs1 [Example 44, Sodium 2-{[2-[(2-methylpropyl)oxy]-5-(trifluoromethyl)phenyl]methyl}-1,3-thiazole-4-carboxylate] | ≤ 31.6 nM
13 | O=C(O)c1csc(Cc2cc(C(F)(F)F)ccc2OCC2CCCC2)n1 [Example 45, Sodium 2-{[2-[(cyclopentylmethyl)oxy]-5-(trifluoromethyl)phenyl]methyl}-1,3-thiazole-4-carboxylate] | ≤ 31.6 nM
14 | O=C(O)c1csc(Cc2cc(Br)ccc2OCc2ccccc2F)n1 [Example 51, Sodium 2-[(5-bromo-2-{[(2-fluorophenyl)methyl]oxy}phenyl)methyl]-1,3-thiazole-4-carboxylate] | ≤ 31.6 nM
15 | O=C(O)c1csc(Cc2cc(Br)ccc2OCc2ccc(F)cc2)n1 [Example 52, Sodium 2-[(5-bromo-2-{[(4-fluorophenyl)methyl]oxy}phenyl)methyl]-1,3-thiazole-4-carboxylate] | ≤ 31.6 nM
16 | O=C(O)c1csc(Cc2cc(Br)ccc2OCc2ccc(F)cc2F)n1 [Example 53, Sodium 2-[(5-bromo-2-{[(2,4-difluorophenyl)methyl]oxy}phenyl)methyl]-1,3-thiazole-4-carboxylate] | ≤ 31.6 nM

Row | SMILES | IC50
17 | O=C(O)c1csc(Cc2cc(Br)ccc2OCc2ccc(Br)cc2)n1 [Example 54, Sodium 2-[(5-bromo-2-{[(4-bromophenyl)methyl]oxy}phenyl)methyl]-1,3-thiazole-4-carboxylate] | ≤ 31.6 nM
18 | O=C(O)c1csc(Cc2cc(Br)ccc2OCc2c(F)cc(F)cc2F)n1 [Example 55, Sodium 2-[(5-bromo-2-{[(2,4,6-trifluorophenyl)methyl]oxy}phenyl)methyl]-1,3-thiazole-4-carboxylate] | ≤ 1000 nM
19 | O=C(O)c1csc(Cc2cc(Br)ccc2OCc2ccc(Cl)cc2)n1 [Example 56, Sodium 2-[(5-bromo-2-{[(4-chlorophenyl)methyl]oxy}phenyl)methyl]-1,3-thiazole-4-carboxylate] | ≤ 31.6 nM
20 | O=C(O)c1csc(Cc2cc(Br)ccc2OCc2ccccc2)n1 [Example 57, Sodium 2-({5-bromo-2-[(phenylmethyl)oxy]phenyl}methyl)-1,3-thiazole-4-carboxylate] | ≤ 31.6 nM
21 | O=C(O)c1csc(Cc2cc(Br)ccc2OCc2cc(F)c(F)cc2F)n1 [Example 58, Sodium 2-[(5-bromo-2-{[(2,4,5-trifluorophenyl)methyl]oxy}phenyl)methyl]-1,3-thiazole-4-carboxylate] | ≤ 31.6 nM
22 | O=C(O)c1csc(Cc2cc(Br)ccc2OCc2c(F)ccc(F)c2F)n1 [Example 59, Sodium 2-[(5-bromo-2-{[(2,3,6-trifluorophenyl)methyl]oxy}phenyl)methyl]-1,3-thiazole-4-carboxylate] | ≤ 31.6 nM
23 | O=C(O)c1csc(Cc2cc(Br)ccc2OCc2ccc(Cl)cc2F)n1 [Example 60, Sodium 2-[(5-bromo-2-{[(4-chloro-2-fluorophenyl)methyl]oxy}phenyl)methyl]-1,3-thiazole-4-carboxylate] | ≤ 31.6 nM
24 | O=C(O)c1csc(Cc2cc(Br)ccc2OCc2ccc(F)cc2Cl)n1 [Example 61, Sodium 2-[(5-bromo-2-{[(2-chloro-4-fluorophenyl)methyl]oxy}phenyl)methyl]-1,3-thiazole-4-carboxylate] | ≤ 31.6 nM
25 | O=C(O)Cc1csc(-c2cc(Cl)ccc2OCc2ccccc2F)n1 [Example 62, Sodium [2-(5-chloro-2-{[(2-fluorophenyl)methyl]oxy}phenyl)-1,3-thiazol-4-yl]acetate] | ≤ 1000 nM
26 | O=C(O)Cc1csc(-c2cc(Cl)ccc2OCc2ccc(F)cc2F)n1 [Example 63, Sodium [2-(5-chloro-2-{[(2,4-difluorophenyl)methyl]oxy}phenyl)-1,3-thiazol-4-yl]acetate] | ≤ 1000 nM
27 | O=C(O)Cc1csc(-c2cc(Cl)ccc2OCc2c(F)cc(F)cc2F)n1 [Example 64, Sodium [2-(5-chloro-2-{[(2,4,6-trifluorophenyl)methyl]oxy}phenyl)-1,3-thiazol-4-yl]acetate] | ≤ 1000 nM
28 | O=C(O)Cc1csc(-c2cc(Cl)ccc2OCc2ccc(Cl)cc2F)n1 [Example 65, Sodium [2-(5-chloro-2-{[(4-chloro-2-fluorophenyl)methyl]oxy}phenyl)-1,3-thiazol-4-yl]acetate] | ≤ 31.6 nM
29 | O=C(O)Cc1csc(-c2cc(Cl)ccc2OCc2ccc(F)cc2Cl)n1 [Example 66, Sodium [2-(5-chloro-2-{[(2-chloro-4-fluorophenyl)methyl]oxy}phenyl)-1,3-thiazol-4-yl]acetate] | ≤ 1000 nM
30 | O=C(O)Cc1csc(-c2cc(Cl)ccc2OCc2c(F)ccc(F)c2F)n1 [Example 67, Sodium [2-(5-chloro-2-{[(2,3,6-trifluorophenyl)methyl]oxy}phenyl)-1,3-thiazol-4-yl]acetate] | ≤ 1000 nM
31 | O=C(O)Cc1csc(-c2cc(Cl)ccc2OCc2cc(F)c(F)cc2F)n1 [Example 68, Sodium [2-(5-chloro-2-{[(2,4,5-trifluorophenyl)methyl]oxy}phenyl)-1,3-thiazol-4-yl]acetate] | ≤ 1000 nM
32 | O=C(O)Cc1csc(-c2cc(Cl)ccc2OCc2cc(F)c(F)c(F)c2)n1 [Example 69, Sodium [2-(5-chloro-2-{[(3,4,5-trifluorophenyl)methyl]oxy}phenyl)-1,3-thiazol-4-yl]acetate] | ≤ 1000 nM

From US20080207708A1, “Oxazole and Thiazole Compounds and Their Use in the Treatment of Pge2 Mediated Disorders” (GLAXO GROUP LIMITED, priority 2005, published 2008)
